Data taken from PubChem BioAssay (NCI).
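Five compound concentrations were applied to cells in 96-well plates for 48 hours; endpoints were derived by simple linear interpolation of the resulting dose-response curve. At the GI50, growth is halved. TGI: concentration producing complete growth inhibition.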

How the values were obtained:
Experiment in all cases: NCI anticancer screen, dose series, 48 h; in the data active = GI50 below about 0.43 µM; inactive = the rest
OVCAR-8 ovarian = system: OVCAR-8 ovarian
CCRF-CEM leukemia = system: CCRF-CEM leukemia
SK-MEL-28 melanoma = system: SK-MEL-28 melanoma
SF-539 CNS = system: SF-539 CNS
A498 renal = system: A498 renal
SF-295 CNS = system: SF-295 CNS
RXF 393 renal = system: RXF 393 renal
HOP-62 NSCLC = system: HOP-62 NSCLC
NCI-H522 lung = system: NCI-H522 lung
OVCAR-5 ovarian = system: OVCAR-5 ovarian
OVCAR-4 ovarian = system: OVCAR-4 ovarian
OVCAR-3 ovarian = system: OVCAR-3 ovarian
PC-3 prostate = system: PC-3 prostate
SK-OV-3 ovarian = system: SK-OV-3 ovarian
EKVX NSCLC = system: EKVX NSCLC
M14 melanoma = system: M14 melanoma
SK-MEL-5 melanoma = system: SK-MEL-5 melanoma
NCI-H460 lung = system: NCI-H460 lung
TK-10 renal = system: TK-10 renal
A549 NSCLC = system: A549 NSCLC
KM12 colon = system: KM12 colon
HCT-116 colon = system: HCT-116 colon
LOX IMVI melanoma = system: LOX IMVI melanoma
IGROV1 ovarian = system: IGROV1 ovarian
UACC-62 melanoma = system: UACC-62 melanoma
MDA-MB-231 breast = system: MDA-MB-231 breast
SF-268 CNS = system: SF-268 CNS
NCI/ADR-RES ovarian = system: NCI/ADR-RES ovarian
UO-31 renal = system: UO-31 renal
HT29 colon = system: HT29 colon
SW-620 colon = system: SW-620 colon
MDA-MB-435 = system: MDA-MB-435
HOP-92 NSCLC = system: HOP-92 NSCLC
SR leukemia = system: SR leukemia
UACC-257 melanoma = system: UACC-257 melanoma
MOLT-4 leukemia = system: MOLT-4 leukemia
COLO 205 colon = system: COLO 205 colon
NCI-H23 lung = system: NCI-H23 lung
SNB-75 CNS = system: SNB-75 CNS
SNB-19 CNS = system: SNB-19 CNS
MALME-3M melanoma = system: MALME-3M melanoma
HS 578T breast = system: HS 578T breast
786-0 renal = system: 786-0 renal
SK-MEL-2 melanoma = system: SK-MEL-2 melanoma
NCI-H226 lung = system: NCI-H226 lung
CAKI-1 renal = system: CAKI-1 renal
HCC-2998 colon = system: HCC-2998 colon
U251 CNS = system: U251 CNS
T-47D breast = system: T-47D breast
HCT-15 colon = system: HCT-15 colon
RPMI-8226 leukemia = system: RPMI-8226 leukemia
BT-549 breast = system: BT-549 breast
MCF7 breast = system: MCF7 breast
DU-145 prostate = system: DU-145 prostate
ACHN renal = system: ACHN renal
SN12C renal = system: SN12C renal

Oc1ccc(-c2cn3ccsc3n2)cc1O
70.5 µM: TGI (SW-620 colon)
60.2 µM: TGI (NCI-H226 lung)
active: GI50 (HS 578T breast) 0.203 µM
75.3 µM: TGI (M14 melanoma)
41.4 µM: TGI (SR leukemia)
37.8 µM: TGI (HCT-116 colon) | TGI (SN12C renal)
29.6 µM: TGI (CCRF-CEM leukemia)
55.4 µM: TGI (MOLT-4 leukemia)
46.4 µM: TGI (OVCAR-3 ovarian)
41.7 µM: TGI (LOX IMVI melanoma)
47.8 µM: TGI (MDA-MB-435)
56.3 µM: TGI (ACHN renal)
> 100 µM: TGI (OVCAR-8 ovarian) | TGI (SK-MEL-28 melanoma) | TGI (SF-295 CNS) | TGI (RXF 393 renal) | TGI (HOP-62 NSCLC) | TGI (OVCAR-5 ovarian) | TGI (OVCAR-4 ovarian) | TGI (PC-3 prostate) | TGI (SK-OV-3 ovarian) | TGI (NCI-H460 lung) | TGI (TK-10 renal) | TGI (A549 NSCLC) | TGI (KM12 colon) | TGI (IGROV1 ovarian) | TGI (SF-268 CNS) | TGI (NCI/ADR-RES ovarian) | TGI (UO-31 renal) | TGI (HT29 colon) | TGI (UACC-257 melanoma) | TGI (COLO 205 colon) | TGI (NCI-H23 lung) | TGI (SNB-75 CNS) | TGI (SNB-19 CNS) | TGI (786-0 renal) | TGI (SK-MEL-2 melanoma) | TGI (CAKI-1 renal) | TGI (HCC-2998 colon) | TGI (T-47D breast) | TGI (HCT-15 colon) | TGI (MCF7 breast) | TGI (DU-145 prostate)
84.4 µM: TGI (MALME-3M melanoma)
78.5 µM: TGI (HOP-92 NSCLC)
22.4 µM: TGI (HS 578T breast)
65.4 µM: TGI (RPMI-8226 leukemia)
79.6 µM: TGI (SF-539 CNS)
30.7 µM: TGI (BT-549 breast)
44.2 µM: TGI (MDA-MB-231 breast)
38.9 µM: TGI (EKVX NSCLC)
43.9 µM: TGI (UACC-62 melanoma)
46.7 µM: TGI (U251 CNS)
inactive: GI50 (OVCAR-8 ovarian) 35.8 µM | GI50 (CCRF-CEM leukemia) 4.41 µM | GI50 (SK-MEL-28 melanoma) 32.9 µM | GI50 (SF-539 CNS) 19.7 µM | GI50 (A498 renal) 25.9 µM | GI50 (SF-295 CNS) 69.6 µM | GI50 (RXF 393 renal) 78 µM | GI50 (HOP-62 NSCLC) 43.2 µM | GI50 (NCI-H522 lung) 11.5 µM | GI50 (OVCAR-5 ovarian) 38.9 µM | GI50 (OVCAR-4 ovarian) 32.7 µM | GI50 (OVCAR-3 ovarian) 15.6 µM | GI50 (PC-3 prostate) 21.7 µM | GI50 (SK-OV-3 ovarian) > 100 µM | GI50 (EKVX NSCLC) 16.7 µM | GI50 (M14 melanoma) 26.1 µM | GI50 (SK-MEL-5 melanoma) 10.5 µM | GI50 (NCI-H460 lung) 45.8 µM | GI50 (TK-10 renal) 63.1 µM | GI50 (A549 NSCLC) 72.8 µM | GI50 (KM12 colon) 27.7 µM | GI50 (HCT-116 colon) 18.1 µM | GI50 (LOX IMVI melanoma) 18.1 µM | GI50 (IGROV1 ovarian) 21.3 µM | GI50 (UACC-62 melanoma) 19.6 µM | GI50 (MDA-MB-231 breast) 17.6 µM | GI50 (SF-268 CNS) 27.8 µM | GI50 (NCI/ADR-RES ovarian) > 100 µM | GI50 (UO-31 renal) 16 µM | GI50 (HT29 colon) 29.5 µM | GI50 (SW-620 colon) 11.5 µM | GI50 (MDA-MB-435) 22.1 µM | GI50 (HOP-92 NSCLC) 23 µM | GI50 (SR leukemia) 10.6 µM | GI50 (UACC-257 melanoma) > 100 µM | GI50 (MOLT-4 leukemia) 11 µM | GI50 (COLO 205 colon) 29.9 µM | GI50 (NCI-H23 lung) 46.3 µM | GI50 (SNB-75 CNS) 55.1 µM | GI50 (SNB-19 CNS) 49.9 µM | GI50 (MALME-3M melanoma) 30.8 µM | GI50 (786-0 renal) 36.6 µM | GI50 (SK-MEL-2 melanoma) 35.1 µM | GI50 (NCI-H226 lung) 20.9 µM | GI50 (CAKI-1 renal) 26.3 µM | GI50 (HCC-2998 colon) 78 µM | GI50 (U251 CNS) 21.5 µM | GI50 (T-47D breast) 32.4 µM | GI50 (HCT-15 colon) 37.8 µM | GI50 (RPMI-8226 leukemia) 12.1 µM | GI50 (BT-549 breast) 10.2 µM | GI50 (MCF7 breast) 18.3 µM | GI50 (DU-145 prostate) 28.7 µM | GI50 (ACHN renal) 22 µM | GI50 (SN12C renal) 18.5 µM
26.7 µM: TGI (SK-MEL-5 melanoma)
33.2 µM: TGI (NCI-H522 lung)
83.6 µM: TGI (A498 renal)
